{"source": "ChEMBL document CHEMBL4616683", "about": "“Inhibitors of Hypoxia-Inducible Factors as Treatment for Cancer” (ACS Med Chem Lett, 2020)", "key": {"[1]": {"target": "T1, Endothelial PAS domain-containing protein 1 (Homo sapiens, UniProt Q99814)", "T1 sequence (Q99814 whole entry, the tested form may be a part)": "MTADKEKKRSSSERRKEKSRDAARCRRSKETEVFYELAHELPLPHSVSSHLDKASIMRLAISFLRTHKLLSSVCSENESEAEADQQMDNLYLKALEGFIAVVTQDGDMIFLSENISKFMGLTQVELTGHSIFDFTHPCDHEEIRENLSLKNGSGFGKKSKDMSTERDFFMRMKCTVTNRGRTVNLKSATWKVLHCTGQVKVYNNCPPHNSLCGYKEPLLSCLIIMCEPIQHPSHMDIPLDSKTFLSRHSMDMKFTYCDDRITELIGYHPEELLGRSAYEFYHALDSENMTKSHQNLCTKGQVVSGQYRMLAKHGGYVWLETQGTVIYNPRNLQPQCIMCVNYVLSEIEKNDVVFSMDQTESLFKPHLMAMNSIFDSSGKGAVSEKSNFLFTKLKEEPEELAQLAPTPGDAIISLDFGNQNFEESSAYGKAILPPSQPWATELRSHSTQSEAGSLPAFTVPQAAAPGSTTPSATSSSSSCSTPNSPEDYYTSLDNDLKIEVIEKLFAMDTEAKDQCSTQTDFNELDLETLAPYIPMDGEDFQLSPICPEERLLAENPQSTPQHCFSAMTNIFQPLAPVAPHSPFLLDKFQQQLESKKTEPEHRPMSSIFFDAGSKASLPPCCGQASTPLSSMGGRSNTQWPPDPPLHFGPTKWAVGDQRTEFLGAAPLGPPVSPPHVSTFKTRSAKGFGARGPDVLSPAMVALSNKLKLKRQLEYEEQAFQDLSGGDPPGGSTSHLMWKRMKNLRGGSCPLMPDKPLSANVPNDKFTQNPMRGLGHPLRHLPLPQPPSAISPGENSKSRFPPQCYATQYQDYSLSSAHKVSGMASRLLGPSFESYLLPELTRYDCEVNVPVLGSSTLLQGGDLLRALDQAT", "description": "Inhibition of human recombinant His6Gb1-tagged HIF2alpha PAS B domain (240 to 350 residues)/human recombinant His6/FLAG-tagged ARNT PAS B domain (356 to 470 residues) interaction incubated for 15 mins by AlphaScreen assay"}, "[2]": {"target": "T1, Endothelial PAS domain-containing protein 1", "remark": "listed apart in the source", "description": "Inhibition of HIF2-alpha in human 786-0 cells harboring HRE-Luc2P reporter construct incubated for 48 hrs by ONE-Glo EX reagent based luminescence assay"}}, "data": [{"smiles": "Cn1nc(C(F)(F)F)cc1-c1sc(S(C)(=O)=O)c2c1CCC(F)(F)[C@H]2O", "values": [{"measurement": "IC50", "setting": "[1]", "value": "> 1", "unit": "µM"}, {"measurement": "IC50", "setting": "[2]", "value": "> 1", "unit": "µM"}]}]}
